Reference: US11578084B2, “Condensed ring compounds having dopamine D3 receptor antagonistic effect” (Shionogi & Co., Ltd., priority 2018, dated 2023)

Experiments:
[1] = biological target: human recombinant dopamine D3 receptor (Homo sapiens (Human), UniProt P35462); assay: Test of binding inhibition for dopamine D3 receptor ([3H]-Methylspiperone SPA); conditions: Jump-In HEK cell membranes, 2 nM [3H]-Methylspiperone, 120 min at 25° C.; read-out: hD3_Ki
Procedure: (§1) (Experimental Conditions)
Cell membranes: Jump-In HEK cell membranes expressing human recombinant dopamine D3 receptor (4 μg/well)
(§2) Non-specific ligand: (final concentration) 10 μM Butaclamol [(+)-Butaclamol Hydrochloride, D033, Sigma]
(§3) SPA beads solution: SPA beads [WGA PVT SPA Scintillation Beads, RPNQ0001 (500 mg), RPNQ0060 (2 g), PerkinElmer] (0.2 mg/well)
(§4) Incubation time and temperature: 120 min at 25° C.
(§5) Butaclamol or the compounds of the present invention were weighed and DMSO was added to make a 10 mM solution. This solution was diluted to each concentration.
[^3H]-Methylspiperone was weighed and the buffer solution was added to make a 6 nM solution.
(§6) SPA beads were weighed and stirred in water to make a 50 mg/mL solution. Using this solution, a mixture with the cell membranes was prepared.
(§7) Jump-In HEK Cell membranes (final reaction amount: 4 μg protein/well), the SPA beads solution (final reaction amount: 0.2 mg/well) and the buffer solution were mixed and the mixed solution was left still for 1 hour or more at 4° C. Then, 50 μL of the mixture was added to each well of the plate. In addition, 25 μL of 6 nM [^3H]-Methylspiperone (final concentration: 2 nM) was added to each well. […] Non-specific binding was calculated based on the radioactivity of [^3H]-Methylspiperone in the presence of 10 μM non-labeled Butaclamol. The total binding was calculated using the radioactivity of [H]-Methylspiperone in the absence of the compounds of the present invention (vehicle). The Ki values were calculated from dose-response curves.
(§8) Binding activities of the compounds of the present invention were calculated from the following Binding Inhibition Rate (%): Inhibition Rate (%)=[1−(c−a)/(b−a)]×100 • a: Average cpm of non-specific binding • b: Average cpm of total binding • c: Cpm in the presence of each test compound

[2] = biological target: human recombinant dopamine D2 receptor (Homo sapiens (Human), UniProt P14416); assay: Test of binding inhibition for dopamine D2 receptor ([3H]-Methylspiperone SPA); conditions: Jump-In HEK cell membranes, 1.2 nM [3H]-Methylspiperone, 120 min at 25° C.; read-out: hD2_Ki
human recombinant dopamine D2 receptor, sequence (P14416 whole entry): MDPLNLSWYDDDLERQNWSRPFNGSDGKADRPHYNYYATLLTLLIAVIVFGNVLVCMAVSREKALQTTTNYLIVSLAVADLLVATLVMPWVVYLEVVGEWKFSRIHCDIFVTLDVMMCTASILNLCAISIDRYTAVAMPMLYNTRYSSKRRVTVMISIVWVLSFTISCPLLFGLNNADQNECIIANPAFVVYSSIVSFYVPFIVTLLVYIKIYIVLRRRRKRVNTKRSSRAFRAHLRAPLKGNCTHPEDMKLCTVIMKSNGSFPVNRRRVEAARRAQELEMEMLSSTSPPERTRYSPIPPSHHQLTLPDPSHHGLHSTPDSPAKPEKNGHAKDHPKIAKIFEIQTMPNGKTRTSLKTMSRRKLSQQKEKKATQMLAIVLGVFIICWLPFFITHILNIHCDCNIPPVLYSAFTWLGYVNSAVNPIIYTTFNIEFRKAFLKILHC
Procedure: as §1
Cell membranes: Jump-In HEK cell membranes expressing human recombinant dopamine D2 receptor (2 μg/well)
as §2, §3, §4, §5, §6
as §7, with “amount: 2” for “amount: 4”, “were mixed,” for “were mixed”, “plate.” for “plate. In addition, 25 μL of 6 nM [^3H]-Methylspiperone (final concentration: 2 nM) was added to each well.”, “of [^3H]-Methylspiperone” for “of [H]-Methylspiperone”, “invention (Vehicle).” for “invention (vehicle).”
as §8

human recombinant dopamine D3 receptor, sequence (P35462 whole entry): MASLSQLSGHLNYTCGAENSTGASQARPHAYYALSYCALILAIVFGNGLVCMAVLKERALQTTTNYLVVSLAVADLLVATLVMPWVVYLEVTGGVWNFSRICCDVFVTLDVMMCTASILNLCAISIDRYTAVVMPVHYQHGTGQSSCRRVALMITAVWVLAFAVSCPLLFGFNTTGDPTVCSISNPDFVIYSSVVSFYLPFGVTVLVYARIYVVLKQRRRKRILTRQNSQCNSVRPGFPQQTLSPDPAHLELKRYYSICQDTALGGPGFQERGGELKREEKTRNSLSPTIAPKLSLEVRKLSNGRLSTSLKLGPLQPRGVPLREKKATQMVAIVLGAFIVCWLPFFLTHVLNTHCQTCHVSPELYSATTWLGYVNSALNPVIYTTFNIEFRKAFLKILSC

Compound	Ki [1]	Ki [2]
CC(Oc1ccc2c(n1)CCN(CC[C@H]1CC[C@H](NC(=O)c3cccc4nn(C)cc34)CC1)CC2)C(F)F (single isomer, unassigned) [Example I-123]	0.034 nM	200 nM
CC(Oc1ccc2c(n1)CCN(CC[C@H]1CC[C@H](NC(=O)c3cccc4nn(C)cc34)CC1)CC2)C(F)F (single isomer, unassigned) [Example I-124]	0.072 nM	180 nM
Cc1ncc(CC(=O)NC2CC3CCC(C2)N3CCN2CCc3sc(OCC(F)(F)F)nc3C2)s1 (single isomer, unassigned) [Example I-134]	0.17 nM	300 nM
Cn1cc2ccc(C(=O)N[C@H]3CC[C@H](CCN4CCc5nc(OCC(C)(F)F)sc5CC4)CC3)cc2n1 [Example I-050]	0.16 nM	> 1800 nM
CC(F)(F)COc1nc2c(s1)CCN(CC[C@H]1CC[C@H](NC(=O)c3cnn4ccccc34)CC1)CC2 [Example I-051]	0.43 nM	1100 nM
Cc1cc(CC(=O)N[C@H]2CC[C@H](CCN3CCc4nc(OCC(C)(F)F)sc4CC3)CC2)on1 [Example I-052]	0.083 nM	1700 nM
Cc1cc(OCC(=O)N[C@H]2CC[C@H](CCN3CCc4nc(OCC(C)(F)F)sc4CC3)CC2)no1 [Example I-053]	0.2 nM	630 nM
Cn1nnc2cccc(C(=O)N[C@H]3CC[C@H](CCN4CCc5nc(OCC(C)(F)F)sc5CC4)CC3)c21 [Example I-054]	0.13 nM	270 nM
Cn1ccc2c(C(=O)N[C@H]3CC[C@H](CCN4CCc5nc(OCC(C)(F)F)sc5CC4)CC3)cccc2c1=O [Example I-055]	0.19 nM	> 1800 nM
Cn1cc2c(C(=O)N[C@H]3CC[C@H](CCN4CCc5ccc(OC6CCC(F)(F)C6)nc5CC4)CC3)cccc2n1 (some centres unmarked) [Example I-057]	0.18 nM	770 nM
Cc1cc2c(C(=O)N[C@H]3CC[C@](F)(CCN4CCc5nc(OCC(F)F)sc5CC4)CC3)cccn2n1 [Example I-058]	0.47 nM	> 1700 nM
Cc1ncc(/C=C/C(=O)N[C@H]2CC[C@](F)(CCN3CCc4nc(OCC(F)F)sc4CC3)CC2)cn1 [Example I-061]	0.65 nM	> 1800 nM
CC(C)Oc1ccc2c(n1)CCN(CC[C@H]1CC[C@H](NC(=O)c3cnn4ccccc34)CC1)CC2 [Example I-062]	1 nM	1100 nM
CC(C)Oc1ccc2c(n1)CCN(CC[C@H]1CC[C@H](NC(=O)c3cccc4c(=O)n(C)ccc34)CC1)CC2 [Example I-063]	0.62 nM	1700 nM
Cc1ncc(CC(=O)N[C@H]2CC[C@H](CCN3CCc4nc(OCC(C)(F)F)sc4CC3)OC2)s1 [Example I-064]	0.3 nM	950 nM
Cc1c(F)cccc1C(=O)N[C@H]1CC[C@H](CCN2CCc3nc(OCC(C)(F)F)sc3CC2)OC1 [Example I-065]	0.26 nM	340 nM
Cn1ncc2ccc(C(=O)N[C@H]3CC[C@H](CCN4CCc5nc(OCC(C)(F)F)sc5CC4)OC3)cc21 [Example I-067]	0.16 nM	370 nM
Cc1ncc(OCC(=O)N[C@H]2CC[C@H](CCN3CCc4nc(OCC(C)(F)F)sc4CC3)OC2)cn1 [Example I-068]	0.47 nM	870 nM
Cc1nc(CC(=O)N[C@H]2CC[C@H](CCN3CCc4sc(C5CC(F)(F)C5)nc4C3)CC2)no1 [Example I-070]	0.17 nM	780 nM
CN1Cc2c(C(=O)N[C@H]3CC[C@](F)(CCN4CCc5nc(OCC(F)F)sc5CC4)CC3)cccc2C1=O [Example I-072]	0.13 nM	> 1700 nM
Cc1nc(CC(=O)N[C@H]2CC[C@](F)(CCN3CCc4ccc(OCC(C)(F)F)nc4CC3)CC2)no1 [Example I-078]	0.13 nM	> 1800 nM
Cc1cc(OCC(=O)N[C@H]2CC[C@](F)(CCN3CCc4ccc(OCC(C)(F)F)nc4CC3)CC2)no1 [Example I-079]	0.07 nM	> 1800 nM
Cc1cc(OCC(=O)N[C@H]2CC[C@](F)(CCN3CCc4ccc(OCC(F)F)nc4CC3)CC2)no1 [Example I-084]	0.25 nM	> 2200 nM
COc1cc(CC(=O)N[C@H]2CC[C@](F)(CCN3CCc4ccc(OCC(F)F)nc4CC3)CC2)on1 [Example I-085]	0.044 nM	> 2200 nM

Compound	Ki [1]	Ki [2]
Cc1cnc(CC(=O)N[C@H]2CC[C@](F)(CCN3CCc4ccc(OCC(F)F)nc4CC3)CC2)o1 [Example I-086]	0.52 nM	> 2200 nM
Cn1cc2c(C(=O)N[C@H]3CC[C@H](CCN4CCc5ccc(OC6CCC6)nc5CC4)CC3)cccc2n1 [Example I-089]	0.22 nM	> 2200 nM
Cc1cnc(CC(=O)N[C@H]2CC[C@H](CCN3CCc4ccc(OC5CCC5)nc4CC3)CC2)o1 [Example I-090]	0.65 nM	> 2400 nM
Cc1ncccc1C(=O)N[C@H]1CC[C@H](CCN2CCc3ccc(OCC(F)F)nc3CC2)CC1 [Example I-091]	0.28 nM	940 nM
CCn1c(C(=O)N[C@H]2CC[C@H](CCN3CCc4ccc(OCC(F)F)nc4CC3)CC2)cccc1=O [Example I-092]	0.16 nM	310 nM
Cc1nnc(CC(=O)N[C@H]2CC[C@H](CCN3CCc4ccc(OCC(F)F)nc4CC3)CC2)o1 [Example I-093]	0.17 nM	1200 nM
Cc1cc(CC(=O)N[C@H]2CC[C@H](CCN3CCc4ccc(OCC(F)F)nc4CC3)CC2)no1 [Example I-094]	0.3 nM	910 nM
Cn1cc(CC(=O)N[C@H]2CC[C@H](CCN3CCc4ccc(OCC(F)F)nc4CC3)CC2)cn1 [Example I-095]	0.18 nM	1400 nM
Cn1cc(OCC(=O)N[C@H]2CC[C@H](CCN3CCc4ccc(OCC(F)F)nc4CC3)CC2)cn1 [Example I-096]	0.18 nM	570 nM
Cc1ncc(OCC(=O)N[C@H]2CC[C@H](CCN3CCc4ccc(OCC(F)F)nc4CC3)CC2)cn1 [Example I-097]	0.11 nM	900 nM
Cc1ncc(/C=C/C(=O)N[C@H]2CC[C@H](CCN3CCc4ccc(OCC(F)F)nc4CC3)CC2)cn1 [Example I-098]	0.17 nM	350 nM
Cn1ncc(CC(=O)N[C@H]2CC[C@](F)(CCN3CCc4ccc(OC5CCC5)nc4CC3)CC2)n1 [Example I-106]	0.54 nM	> 2300 nM
Cc1ncc(CC(=O)N[C@H]2CC[C@H](CCN3CCc4nc(OCC(F)(F)F)sc4CC3)CC2)cn1 [Example I-110]	0.17 nM	460 nM
Cc1nnc(CC(=O)N[C@H]2CC[C@](F)(CCN3CCc4nc(OCCC(F)(F)F)sc4CC3)CC2)s1 [Example I-115]	0.63 nM	> 2200 nM
Cc1ncc(/C=C/C(=O)N[C@H]2CC[C@](F)(CCN3CCc4nc(OCCC(F)(F)F)sc4CC3)CC2)cn1 [Example I-116]	1 nM	> 2200 nM
Cc1cnc(CC(=O)N[C@H]2CC[C@](F)(CCN3CCc4nc(OCCC(F)(F)F)sc4CC3)CC2)o1 [Example I-117]	0.55 nM	> 2200 nM
Cc1cnc(OCC(=O)N[C@H]2CC[C@](F)(CCN3CCc4nc(OCCC(F)(F)F)sc4CC3)CC2)cn1 [Example I-118]	0.74 nM	> 2200 nM
C[C@@H](Oc1nc2c(s1)CCN(CC[C@H]1CC[C@H](NC(=O)COc3cnn(C)c3)CC1)CC2)C(F)(F)F [Example I-120]	0.84 nM	840 nM
O=C(N[C@H]1CC[C@H](CCN2CCc3ccc(OCC(F)F)nc3CC2)CC1)c1cccnc1C(F)F [Example I-121]	0.26 nM	650 nM
Cn1c(C(=O)N[C@H]2CC[C@H](CCN3CCc4nc(OCC(F)(F)F)sc4CC3)CC2)ccc(F)c1=O [Example I-122]	0.24 nM	360 nM
Cc1nnc(CC(=O)N[C@H]2CC[C@H](CCN3CCc4nc(O[C@H](C)C(F)(F)F)sc4CC3)CC2)s1 [Example I-125]	0.61 nM	1100 nM
Cc1nnc(CC(=O)N[C@H]2CC[C@](F)(CCN3CCc4nc(O[C@H](C)C(F)(F)F)sc4CC3)CC2)s1 [Example I-126]	0.92 nM	> 2300 nM
Cc1ncc(OCC(=O)N[C@H]2CC[C@H](CCN3CCc4ccc(O[C@H](C)C(F)(F)F)nc4CC3)CC2)cn1 [Example I-127]	0.12 nM	410 nM
Cn1cc(OCC(=O)N[C@H]2CC[C@H](CCN3CCc4ccc(CCC(F)(F)F)nc4CC3)CC2)cn1 [I′-6]	0.33 nM	–
